Compound	melting point [°C]
O=C(O)C1CCCCN1C(=O)c1cccnc1 (configuration not stated)	188 to 190
O=C(O)CCCOc1cccnc1	125 to 127
O=C(O)CCc1nc(-c2ccccc2)no1	138 to 140
C=CCN(c1ccccc1)S(=O)(=O)c1cccc(C(=O)O)c1	103 to 105
NC(=O)NC(CC(=O)O)c1cccs1 (configuration not stated)	190 to 192
Sc1nnc(-c2ccccc2)n1-c1ccccc1	292 to 294
Cc1ccc(-n2cnnc2SCC(=O)O)cc1	218 to 220
O=C(O)C1CCC(=O)N(Cc2ccccc2)C1 (configuration not stated)	154 to 156
O=C(O)CNC(=O)NCC1CCCC1	138 to 140
Nc1cccnc1Oc1ccccc1	107 to 109
CC(=O)N1CCN(c2ccc(CO)cc2)CC1	146 to 148
Cn1c(Cl)nc2c1c(=O)[nH]c(=O)n2C	299 to 301
O=Cc1c(-c2ccccc2)n(-c2ccccc2)c2ccccc12	246 to 248
CC(=O)NC(CC(N)=O)C(=O)O (configuration not stated)	168 to 170
O=c1[nH]c(CCl)nc2c1cnn2-c1ccccc1	259 to 261
Nc1ccc(Sc2nncs2)c(Cl)c1	112 to 114
CNc1ccnc(C(N)=O)c1	157 to 159
Cc1ccc(C(=O)c2cccnc2)cc1	71 to 73
Cc1cc(Cl)nnc1C	45 to 47
Cc1ccccc1-c1nnc(S)o1	188 to 190
Cc1ccc(C(C)(C)C(=O)O)cc1	76 to 78
O=C(O)C1CCCN1C(=O)Nc1ccccc1 (configuration not stated)	161 to 163
CCc1ccc(C(=O)O)cc1N	146 to 148
CCN(Cc1ccccc1N)C(C)=O	79 to 81
Cc1cc(Oc2ccccc2)ccc1N	60 to 62

Compound	melting point [°C]
Cc1ccc(-c2ccc(C=O)s2)cc1	87 to 89
O=C1CCCc2nc(-c3ccncc3)sc21	159 to 161
CCc1cc(OCC(=O)O)ccc1Cl	143 to 145
CC(Cl)C(=O)NC(=O)Nc1ccccc1F (configuration not stated)	135 to 137
C#CCNC(=O)Nc1ccc(Cl)cc1	211 to 213
CCN1CCNC1=O	75 to 77
Cc1nn(C2CCS(=O)(=O)C2)c(C)c1C=O (configuration not stated)	122 to 124
CCC(C)NC(=O)CN1CCNCC1 (configuration not stated)	55 to 57
CCOC(=O)c1ccc(Br)c(S(=O)(=O)Cl)c1	93 to 95
Nc1cncnc1-c1ccccc1	115 to 117
CC(C)c1cccc(C(C)C)c1NCCO	72 to 74
CC1(CCc2ccccc2)NC(=O)N(N)C1=O (configuration not stated)	< 17
O=S(=O)(Cl)c1cnn(C2CCOCC2)c1	59 to 61
Cc1ccc(C(=O)CCl)cc1C	51 to 53
CCCc1ccccc1NC(N)=S	116 to 118
O=C(O)c1cc([N+](=O)[O-])c(Br)cc1F	152 to 154
CC(C)(C)OC(=O)CNc1ccc2c(c1)OCO2	70 to 72
CCCN1CCCC1C(=O)O (configuration not stated)	83 to 85
Cc1ccsc1C(=O)c1ccc(Cl)cc1F	39 to 41
O=C(O)c1cocn1	129 to 131
Nc1ccc(N2CCOC2=O)cc1	149 to 151
O=Cc1ccc(-c2ccc(C(F)(F)F)cc2)o1	106 to 108
O=c1c2ccccc2nnn1CO	133 to 135
Nc1ccn(Cc2cccnc2)n1	88 to 90
CC(C)Oc1ccc(CCC(=O)O)cc1	74 to 76

Compound	melting point [°C]
CCOC(=O)COc1ccc(Br)cc1F	30 to 32
Cc1cc(Cl)c2cc(Cl)cc(C)c2n1	122 to 124
CC1CCc2[nH]c(=O)sc2C1 (configuration not stated)	180 to 182
COc1cc(Cl)ccc1S(N)(=O)=O	169 to 171
O=S1(=O)C=C(Nc2ccccc2)CC1	153 to 155
O=C(CCl)N1N=C(c2cc3ccccc3o2)CC1c1ccco1 (configuration not stated)	165 to 167
Cc1ccc(-c2ccc(C=O)o2)cc1	53 to 55
O=C(O)C1CC(=O)N(c2ccc3c(c2)OCO3)C1 (configuration not stated)	172 to 174
O=C(O)C1CCN(C(=O)CCc2ccccc2)CC1	107 to 109
c1ccc(CCc2nnn[nH]2)cc1	96 to 98
CC(C)NC(=O)c1cccc(CN)c1	105 to 107
Cc1ccc(N)cc1N1C(=O)CCC1=O	199 to 201
Cc1n[nH]cc1C(=O)NN	199 to 201
NNC(=O)CSc1ccc(Cl)cc1	100 to 102
COc1cc(C#N)ccc1OC(C)C	71 to 73
OCc1cn(-c2ccccc2Cl)nn1	87 to 89
NS(=O)(=O)c1ccc(Cl)nc1	154 to 156
Cc1ccc(C)n1-c1sccc1C(=O)O	168 to 170
Cn1cc(S(=O)(=O)Cl)cc1C(=O)O	164 to 166
O=C(O)C1CCCN(C(=O)c2c[nH]c3ccccc23)C1 (configuration not stated)	231 to 233
N#CC1(NC(=O)c2ccccc2)CCCC1	130 to 132
Nc1ccc(-c2nnc3n2CCC3)cc1	311 to 313
O=C(O)Cn1cccn1	139 to 141
FC(F)(F)c1cccc(-c2ccc(Cl)nn2)c1	133 to 135
COC(=O)c1cc([N+](=O)[O-])c(Br)cc1F	72 to 74

Compound	melting point [°C]
COc1cccc2c1OCC(C(=O)O)C2 (configuration not stated)	174 to 176
Clc1cc(Cl)cc(-c2nnc3ccc(Cl)nn23)c1	209 to 211
Nc1cnc(C2CC2)nc1	169 to 171
O=C1NCCCc2sccc21	89 to 91
Cc1cccc(C(=O)O)c1-n1cccc1	127 to 129
COc1ccc(N)cc1OCc1cn2ccccc2n1	190 to 192
CC(CC(=O)O)c1ccc(F)cc1F (configuration not stated)	66 to 68
Oc1ccnc2cc(Cl)c(Br)cc12	369 to 371
CCCCOc1ccc(C(=O)O)cc1OCCCC	140 to 142
Nc1cc(-c2cccnc2)no1	174 to 176
Cc1nc2cc(N)ccc2n1C	164 to 166
NC(CC(=O)O)c1cccc(Cl)c1 (configuration not stated)	227 to 229
Cc1nn(CC(F)(F)F)c(C)c1CC(=O)O	157 to 159
C#CCN1CCC(NC2CCOCC2)CC1	74 to 76
COc1cc(C=O)ccc1OC(=O)c1ccc(F)cc1	100 to 102
O=C(O)CCCNc1ncccn1	127 to 129
Nc1cc(N2CCNC2=O)ccc1Cl	224 to 226
O=C(O)c1cc2c(F)cc(F)cc2[nH]1	252 to 254
COc1cc(C(=O)O)cc(NC(C)=O)c1OC	229 to 231
Nc1ccc(S(=O)(=O)N=C2CCCCCN2)cc1	115 to 117
O=C(Nc1cc[nH]n1)c1ccccc1	161 to 163
Nc1nc(-c2ccccc2C(F)(F)F)cs1	115 to 117
N#Cc1cc(N)ccc1OCC(F)(F)F	78 to 80
N#Cc1cc(Br)c2cc[nH]c2c1	139 to 141
Nc1nnc(-c2cccc(OC(F)F)c2)o1	179 to 181

Compound	melting point [°C]
COc1ccc(CNc2nccs2)cc1	147 to 149
COC(=O)NC1CCC(O)CC1 (configuration not stated)	139 to 141
CS(=O)(=O)Nc1ccc(CCl)cc1	107 to 109
O=[N+]([O-])c1cc(Cl)ccc1I	63 to 65
O=C(O)CCCNc1nc(-c2ccccc2)cs1	155 to 157
COC(=O)c1ccc(Sc2ccc(Cl)cn2)c(N)c1	121 to 123
C#CCNC(=O)c1ccc(Cl)nc1	139 to 141
CC(N)Cn1cnc2c(cnn2C)c1=O (configuration not stated)	148 to 150
COC(=O)c1ccc(Cl)nc1C	30 to 32
CC1CNc2ccccc2NC1=O (configuration not stated)	203 to 205
O=c1[nH]c2ccc(S(=O)(=O)Cl)cc2[nH]c1=O	304 to 306
NS(=O)(=O)c1ccc(OCCC(=O)O)cc1	140 to 142
Nn1cnc2ccccc21	147 to 149
N#Cc1cn(-c2ccccc2[N+](=O)[O-])nc1N	188 to 190
O=c1c(Oc2ccccc2)coc2cc(O)ccc12	197 to 199
CC(=O)c1cnn(-c2ccccn2)c1C	75 to 77
COC(=O)C1CCC(C(=O)O)CC1 (configuration not stated)	85 to 87
Cc1c[nH]c(=O)n1-c1ccccc1	210 to 212
Cc1ccc(C(C)O)cc1[N+](=O)[O-] (configuration not stated)	48 to 50
O=C1CC(c2ccccc2)CN1 (configuration not stated)	70 to 72
O=C1C(Br)CCN1c1cccc([N+](=O)[O-])c1 (configuration not stated)	104 to 106
Cc1nc(-c2ccccn2)nc(O)c1C	145 to 147
O=[N+]([O-])c1ccc(Cl)c2cccnc12	130 to 138
NC1(C(=O)O)CCCCC1	300 to 302
Nc1cc(S(=O)(=O)NC2CC2)ccc1F	101 to 103

Compound	melting point [°C]
Cc1nc2ccccc2c(C)c1C(=O)O	186 to 188
COc1ccccc1C(=O)NC(C(=O)O)C(C)C (configuration not stated)	128 to 129
O=C1OC(O)C(Br)=C1Br (configuration not stated)	122 to 124
Cc1ccc(C)c(-c2nc(N)sc2C)c1	92 to 94
O=C(O)c1cccnc1N1CCN(Cc2cccc(Cl)c2)CC1	188 to 190
Cc1cc(N)nc(C(C)C)n1	196 to 198
CCOC(=O)c1ccc(S(=O)(=O)N2CCCC2C(=O)O)o1 (configuration not stated)	124 to 126
NS(=O)(=O)c1ccc(CNC(=O)OCC(F)(F)F)cc1	150 to 152
O=C(O)c1cc(Cl)ccc1OC(F)F	109 to 111
OC1CCCc2nc(-c3ccccc3)sc21 (configuration not stated)	96 to 98
Nn1c(S)nnc1-c1cccs1	216 to 220
O=C(CCl)Nc1ccc2c(c1)C(=O)c1ccccc1C2=O	298 to 300
Cc1cc(C)cc(-c2cc(N)[nH]n2)c1	75 to 77
S=c1cc[nH]c2ccccc12	159 to 161
O=C(O)COc1ccc2oc3ccccc3c2c1	132 to 134
Fc1cccc2c1CCCN2	45 to 47
CC(C)(C)OC(=O)NC(C(N)=NO)c1ccccc1 (configuration not stated)	177 to 179
O=C(O)c1ccc(Cl)c2cccnc12	199 to 201
O=C(O)C1(c2ccc3c(c2)OCO3)CCCCC1	176 to 178
Cc1sc(-c2ccco2)nc1C(=O)O	229 to 231
CC1Cc2cc(S(N)(=O)=O)cc(Cl)c2O1 (configuration not stated)	174 to 176
Nc1cnc2ccccc2n1	138 to 140

From a melting point compilation (Tetko et al.)
